These results are taken from patent US20230190760A1, “ADVANTAGEOUS THERAPIES FOR DISORDERS MEDIATED BY IKAROS OR AIOLOS” (C4 Therapeutics, Inc., priority 2020, published 2023).

In one assay the target is cereblon-DDB1 (Homo sapiens, UniProt Q96SW2). Description: Fluorescent polarization: probe displacement from purified cereblon-DDB1. In kind it is binding. As to conditions: competition with Alexa-647 based fluorescence probe. The procedure:
Columns 23 and 24 are reserved for 0% (5 nM probe) and 100% controls (protein at high concentration with 5 nM probe), respectively. […] Plates were read on an Envision plate reader with appropriate FP filter sets.

The target in assay [1] is G1 to S Phase Transition 1 (GSPT1) (Homo sapiens, UniProt P15170). Nature of the assay: Targeted cell-based assay for GSPT1. The conditions noted are these: up to 10 μM.
The next assay addresses IKZF1 (Homo sapiens, UniProt Q13422+Q96SW2). Nature of the assay: Ikaros degradation in Ki-JK cells by flow cytometry. In kind it is cell-based. Further details: host or cells: Ki-JK cells. The procedure: Flow cytometry was used to assess the Ikaros degradation characteristics and evaluate the mechanism of Compound 1. […] The cells were prepared for staining using the FOXP3 Fix/Perm Buffer Set (BioLegend, 421403) according to the manufacturer's instructions at 1.5, 3, and 6 hours. IKZF1-AF488 (564867) and IgG1-488 (557782) (BD Biosciences) were diluted 1:100 in Perm Buffer. Signal was detected using the Guava® easyCyte™ Flow Cytometer. […] Degradation was not observed with the combination of Compound 1 and bortezomib or MLN-4924.

A further assay has as its system KIJK. Description: Anti-proliferative activity, 96 hours.
In the next assay the test system is HuT 102. Nature of the assay: Anti-proliferative activity, 96 hours. As to conditions: HuT-102, 96 h.
Another assay concerns HH. Nature of the assay: Anti-proliferative activity, 96 hours. As to conditions: Homo sapiens.
Another assay deals with Mino. Nature of the assay: Anti-proliferative activity, 96 hours. The conditions noted are these: Homo sapiens.
The test system of the next assay is Jeko-1. Description: Anti-proliferative activity, 96 hours. The conditions noted are these: Homo sapiens, JeKo-1, 96 h.

SMILES strings stand for the structures.

Sequence of IKZF1 (Q13422 whole entry): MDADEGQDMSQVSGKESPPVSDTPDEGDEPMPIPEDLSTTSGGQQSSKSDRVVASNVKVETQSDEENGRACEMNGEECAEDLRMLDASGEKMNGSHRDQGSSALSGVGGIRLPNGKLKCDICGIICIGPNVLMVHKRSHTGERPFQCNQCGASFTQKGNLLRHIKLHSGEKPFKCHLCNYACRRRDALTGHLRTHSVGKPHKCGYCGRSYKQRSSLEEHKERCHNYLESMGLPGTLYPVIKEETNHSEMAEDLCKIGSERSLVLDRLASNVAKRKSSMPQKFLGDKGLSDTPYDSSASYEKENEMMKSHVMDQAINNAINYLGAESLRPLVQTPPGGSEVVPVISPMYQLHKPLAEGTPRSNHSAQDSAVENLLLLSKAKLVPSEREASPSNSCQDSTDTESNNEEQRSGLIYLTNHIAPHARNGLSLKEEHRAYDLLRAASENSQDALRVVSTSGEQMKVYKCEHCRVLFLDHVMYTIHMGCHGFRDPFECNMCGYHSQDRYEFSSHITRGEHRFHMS
Sequence of IKZF1 (Q96SW2 whole entry): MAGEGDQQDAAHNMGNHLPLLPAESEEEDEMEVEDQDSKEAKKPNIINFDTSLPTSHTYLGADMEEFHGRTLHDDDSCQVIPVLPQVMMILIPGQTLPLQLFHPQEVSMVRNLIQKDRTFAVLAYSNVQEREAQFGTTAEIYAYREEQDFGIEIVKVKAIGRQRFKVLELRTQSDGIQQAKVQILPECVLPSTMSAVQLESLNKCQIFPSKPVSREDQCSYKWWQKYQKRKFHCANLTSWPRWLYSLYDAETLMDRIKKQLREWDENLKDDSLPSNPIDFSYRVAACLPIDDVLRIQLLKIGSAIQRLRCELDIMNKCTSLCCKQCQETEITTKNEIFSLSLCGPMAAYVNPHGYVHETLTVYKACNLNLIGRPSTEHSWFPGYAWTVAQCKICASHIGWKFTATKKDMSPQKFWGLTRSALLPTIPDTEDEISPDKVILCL
Sequence of IKZF1 (Q16531 2-1140 partner limits assumed): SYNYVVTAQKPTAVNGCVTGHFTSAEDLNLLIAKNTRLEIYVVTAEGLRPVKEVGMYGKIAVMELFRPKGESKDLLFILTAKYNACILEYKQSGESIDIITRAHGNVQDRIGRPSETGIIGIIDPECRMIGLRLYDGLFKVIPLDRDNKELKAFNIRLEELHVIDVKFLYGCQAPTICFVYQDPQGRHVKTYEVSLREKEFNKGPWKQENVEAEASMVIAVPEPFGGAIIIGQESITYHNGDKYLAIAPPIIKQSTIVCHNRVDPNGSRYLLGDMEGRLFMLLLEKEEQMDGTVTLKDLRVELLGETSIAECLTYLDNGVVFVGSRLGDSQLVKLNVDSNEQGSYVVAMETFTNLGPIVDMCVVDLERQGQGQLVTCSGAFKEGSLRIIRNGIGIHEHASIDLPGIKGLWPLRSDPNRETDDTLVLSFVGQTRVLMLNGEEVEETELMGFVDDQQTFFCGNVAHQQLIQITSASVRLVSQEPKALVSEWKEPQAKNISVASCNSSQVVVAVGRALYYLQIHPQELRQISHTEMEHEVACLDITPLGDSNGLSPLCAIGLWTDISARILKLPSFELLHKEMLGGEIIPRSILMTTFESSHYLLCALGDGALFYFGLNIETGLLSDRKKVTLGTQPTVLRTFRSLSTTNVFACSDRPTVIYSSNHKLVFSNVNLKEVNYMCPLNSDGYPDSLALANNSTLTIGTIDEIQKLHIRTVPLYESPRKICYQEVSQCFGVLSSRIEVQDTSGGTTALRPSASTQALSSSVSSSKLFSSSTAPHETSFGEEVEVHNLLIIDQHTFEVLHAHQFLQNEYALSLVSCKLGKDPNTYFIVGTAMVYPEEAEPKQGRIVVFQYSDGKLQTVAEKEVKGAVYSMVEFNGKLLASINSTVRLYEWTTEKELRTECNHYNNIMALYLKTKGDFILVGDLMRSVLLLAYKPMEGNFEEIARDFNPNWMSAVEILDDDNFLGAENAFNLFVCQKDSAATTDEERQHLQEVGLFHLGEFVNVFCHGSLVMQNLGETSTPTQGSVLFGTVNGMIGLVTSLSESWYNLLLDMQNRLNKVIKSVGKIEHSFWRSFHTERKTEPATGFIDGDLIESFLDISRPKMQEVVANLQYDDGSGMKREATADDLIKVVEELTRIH
Sequence of G1 to S Phase Transition 1 (GSPT1) (Q96SW2 whole entry partner, species assumed): as the sequence (Q96SW2 whole entry) above
Sequence of G1 to S Phase Transition 1 (GSPT1) (Q16531 2-1140 partner limits assumed, species assumed): as the sequence (Q16531 2-1140 partner limits assumed) above
Sequence of G1 to S Phase Transition 1 (GSPT1) (P15170 whole entry, species assumed): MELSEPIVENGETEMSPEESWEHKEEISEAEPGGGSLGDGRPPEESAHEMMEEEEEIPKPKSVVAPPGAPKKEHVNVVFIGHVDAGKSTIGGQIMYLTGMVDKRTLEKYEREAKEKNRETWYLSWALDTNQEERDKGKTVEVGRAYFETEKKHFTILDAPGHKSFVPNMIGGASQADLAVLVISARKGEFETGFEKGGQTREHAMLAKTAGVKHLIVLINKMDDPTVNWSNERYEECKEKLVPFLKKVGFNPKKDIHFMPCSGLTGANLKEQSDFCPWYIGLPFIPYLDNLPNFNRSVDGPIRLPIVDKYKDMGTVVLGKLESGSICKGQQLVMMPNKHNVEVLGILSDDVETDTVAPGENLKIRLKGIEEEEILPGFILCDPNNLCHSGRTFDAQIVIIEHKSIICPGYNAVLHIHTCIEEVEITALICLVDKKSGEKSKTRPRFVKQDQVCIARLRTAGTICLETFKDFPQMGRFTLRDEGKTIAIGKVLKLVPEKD
Sequence of cereblon-DDB1 (Q96SW2 whole entry): as the sequence (Q96SW2 whole entry) above
Sequence of cereblon-DDB1 (Q16531 whole entry partner): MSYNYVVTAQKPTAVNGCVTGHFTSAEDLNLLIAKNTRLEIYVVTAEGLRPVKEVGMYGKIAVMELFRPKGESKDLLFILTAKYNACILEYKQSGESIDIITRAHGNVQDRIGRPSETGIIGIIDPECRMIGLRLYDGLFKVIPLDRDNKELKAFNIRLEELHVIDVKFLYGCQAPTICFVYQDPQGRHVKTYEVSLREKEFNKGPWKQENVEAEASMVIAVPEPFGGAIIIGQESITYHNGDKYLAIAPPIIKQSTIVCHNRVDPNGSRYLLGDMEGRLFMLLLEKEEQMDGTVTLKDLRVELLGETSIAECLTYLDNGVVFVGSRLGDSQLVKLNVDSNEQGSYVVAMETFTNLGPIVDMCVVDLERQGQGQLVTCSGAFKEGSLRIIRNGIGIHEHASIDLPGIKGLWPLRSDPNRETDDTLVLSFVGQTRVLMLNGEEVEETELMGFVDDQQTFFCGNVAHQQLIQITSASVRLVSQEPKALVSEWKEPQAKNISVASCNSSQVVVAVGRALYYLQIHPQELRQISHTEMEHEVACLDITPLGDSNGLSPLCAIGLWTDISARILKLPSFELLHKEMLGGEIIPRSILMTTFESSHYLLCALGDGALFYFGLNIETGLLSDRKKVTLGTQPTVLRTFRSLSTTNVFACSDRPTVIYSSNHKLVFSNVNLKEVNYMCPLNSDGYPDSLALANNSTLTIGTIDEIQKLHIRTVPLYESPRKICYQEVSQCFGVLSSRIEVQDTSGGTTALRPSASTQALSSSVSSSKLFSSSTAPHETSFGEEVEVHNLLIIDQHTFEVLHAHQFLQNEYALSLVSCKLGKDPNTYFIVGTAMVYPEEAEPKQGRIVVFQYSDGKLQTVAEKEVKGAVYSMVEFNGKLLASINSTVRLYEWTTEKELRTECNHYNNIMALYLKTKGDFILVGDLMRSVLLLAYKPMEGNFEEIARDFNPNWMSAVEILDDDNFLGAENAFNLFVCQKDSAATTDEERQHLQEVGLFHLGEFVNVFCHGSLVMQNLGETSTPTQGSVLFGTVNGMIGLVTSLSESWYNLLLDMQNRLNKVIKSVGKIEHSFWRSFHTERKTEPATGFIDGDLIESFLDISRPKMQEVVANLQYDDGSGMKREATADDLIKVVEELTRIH

Regarding `O=C1CC[C@H](N2C(=O)c3cccc4c(Cc5ccc(CN6CCOCC6)cc5)ccc2c34)C(=O)N1` (single isomer, unassigned) [Compound 1], the Kd on cereblon-DDB1 came out at 0.9 nM. Also, the “effect on GSPT1” value in assay [1] is “no significant effect”. For the same compound, on IKZF1 (0.001-100 nM, read at 1.5, 3 and 6 hours), the “time of maximal Ikaros degradation” value was determined as 6 h. Besides, the “Ikaros degradation with proteasome or neddylation inhibitor” value on IKZF1 (with bortezomib (10 μM) or MLN-4924 (10 μM), 6 hours) is recorded as “not observed”. The IC50 in the assay on KIJK was 0.583 nM; in the assay on HuT 102 it was 15.4 nM; in the assay on HH, 58 nM; with Mino, 0.194 nM; in the assay on Jeko-1, 43.2 nM.
